Patent US10898539B2, “Process for the synchronization of ovulation for timed breeding without heat detection” (priority 2003, dated 2021)

How the values were obtained:
Type in all cases: in vivo, swine
mature postpartum sows = test: Intravulvar injection at estrus detection in mature postpartum sows, AI breeding (Example 2)
Procedure: Sows were assigned randomly in blocks of two to either control or to be injected intravulvar with 50 mcg of deslorelin in SAIB at the time of estrus detection for sows first detected in estrus in the a.m. and 12 hours later for those first detected in estrus in the p.m. Treated animals were bred AI upon detected estrus and again 24 hours later if still in estrus. Controls received a saline injection on first detected estrus behavior estrus detection and were bred according to the farm's normal procedures.

postpartum sows [1] = test: Single timed injection 96 hours post-weaning and single timed insemination without estrus detection in postpartum sows (Example 3); conditions: 50 mcg at 96 hours post-weaning
Procedure: (§1) Approximately 170 postpartum sows were randomly divided into two equal groups comprised of controls and treated. Following weaning, the controls were detected for estrus and bred following the normal standard operating procedures for the farms on which they resided. The treated sows received a 50 mcg dose of deslorelin in SAIB at 96 hours post-weaning and were bred with a single insemination 28+/−2 hours later with no regard to estrus detection. The sows were examined for pregnancy by ultrasound at 21 days and slaughtered around 28 days post breeding. The entire reproductive tract was removed and corpora lutea and embryos were counted.

postpartum sows [2] = test: Litter size after deslorelin treatment in postpartum sows at three farm sites (Example 4)
Excerpt: Postpartum sows were randomly distributed into three different groups comprised of Controls, Treatment 1, and Treatment 2, with the exception of Site 3, which was divided into two groups, Control and Treatment 2. Control sows were detected for estrus following weaning, and bred following the normal standard operating procedures for the farms on which they resided. Treatment 1 sows were detected for estrus following weaning, and received a 50 mcg dose of deslorelin in the morning when standing and were bred by AI 4 hours later and again at 24+/−2 hours later. Treatment 2 sows received a 50 mcg dose of deslorelin in SAIB at 96 or 120 hours post-weaning and were bred with a single insemination 28+/−2 hours later with no regard to estrus detection.

postpartum sows [3] = test: Pregnancy rate after deslorelin treatment in sows, summary of Tables 2-5
Procedure: as §1, with “counted. Postpartum sows were randomly distributed into three different groups comprised of Controls, Treatment 1, and Treatment 2, with the exception of Site 3, which was divided into two groups, Control and Treatment 2. Control sows were detected for estrus following weaning, and bred following the normal standard operating procedures for the farms on which they resided. Treatment 1 sows were detected for estrus following weaning, and received a 50 mcg dose of deslorelin in the morning when standing and were bred by AI 4 hours later and again at 24+/−2 hours later. Treatment 2 sows received a 50 mcg dose of deslorelin in SAIB at 96 or 120 hours post-weaning and were bred with a single insemination 28+/−2 hours later with no regard to estrus detection. […]” for “counted.”

[4] = 50 μg intravulvar at first estrus detection, AI, AI again if in estrus next day
[5] = slaughtered around 28 days post breeding
[6] = Site 1, Treatment 1: 50 mcg when standing in estrus, AI 4 hours later and again at 24+/-2 hours
[7] = Site 1, Treatment 2: 50 mcg in SAIB at 96 or 120 hours post-weaning, single insemination 28+/-2 hours later, no estrus detection
[8] = Site 2, Treatment 1: 50 mcg when standing in estrus, AI 4 hours later and again at 24+/-2 hours
[9] = Site 2, Treatment 2: 50 mcg in SAIB at 96 or 120 hours post-weaning, single insemination 28+/-2 hours later, no estrus detection
[10] = Site 3, Treatment 2: 50 mcg in SAIB at 96 or 120 hours post-weaning, single insemination 28+/-2 hours later, no estrus detection

CCNC(=O)[C@@H]1CCCN1C(=O)[C@H](CCCN=C(N)N)NC(=O)[C@H](CC(C)C)NC(=O)[C@@H](Cc1c[nH]c2ccccc12)NC(=O)[C@H](Cc1ccc(O)cc1)NC(=O)[C@H](CO)NC(=O)[C@H](Cc1c[nH]c2ccccc12)NC(=O)[C@H](Cc1cnc[nH]1)NC(=O)[C@@H]1CCC(=O)N1 [Deslorelin, deslorelin]
Length of Estrus (mature postpartum sows; [4]): 40.81 (n = 69) Hrs.
Pregnancy Rate (mature postpartum sows; [4]): 91% (n = 75)
pregnancy rates, Control versus Treated groups (in words) (mature postpartum sows; 50 mcg intravulvar at estrus detection): no significant difference
Pregnancy Rate (postpartum sows [1]; single insemination 28+/-2 hours later, no estrus detection): 71%
Sows Pregnant (postpartum sows [1]; single insemination 28+/-2 hours later, 84 sows in group): 60
Embryo Survival (postpartum sows [1]; [5]): 64%
Live Embryos (postpartum sows [1]; [5]): 13.4
Avg. Total Live Pigs (postpartum sows [2]; [6]): 11.03
Avg. Total Pigs Born (postpartum sows [2]; [6]): 12.10
Avg. Total Live Pigs (postpartum sows [2]; [7]): 11.24
Avg. Total Pigs Born (postpartum sows [2]; [7]): 12.37
Avg. Total Live Pigs (postpartum sows [2]; [8]): 10.25
Avg. Total Pigs Born (postpartum sows [2]; [8]): 11.21
Avg. Total Live Pigs (postpartum sows [2]; [9]): 10.02
Avg. Total Pigs Born (postpartum sows [2]; [9]): 10.88
Avg. Total Live Pigs (postpartum sows [2]; [10]): 10.27
Avg. Total Pigs Born (postpartum sows [2]; [10]): 11.09
litter sizes (in words) (postpartum sows [2]; Tables 3-5, regardless of estrus detection): normal litter sizes
pregnancy rates (in words) (postpartum sows [3]; Table 6): normal pregnancy rates
Number Pregnant (postpartum sows [3]; Treatment 2 (timed injection, single timed insemination), 250 sows in group, data of Tables 2-5 summarized): 177
% Pregnant (postpartum sows [3]; Treatment 2 (timed injection, single timed insemination), data of Tables 2-5 summarized): 70.80%
